Laboratory results taken from ChEMBL document CHEMBL3751775, “Identification of B. anthracis N(5)-carboxyaminoimidazole ribonucleotide mutase (PurE) active site binding compounds via fragment library screening” (Bioorg Med Chem, 2016).

tested on: Bacillus anthracis; experiment: Inhibition of Bacillus anthracis PurE using CAIR as substrate at 25 uM preincubated for 5 mins followed by substrate addition by UV spectroscopic analysis; conditions: not given; call rule not given here

Q: With `CCc1ccc(C(=O)Nc2nncs2)s1` as the molecule, how does the inhibition read?
A: 49%

tested on: Bacillus anthracis; experiment: Inhibition of Bacillus anthracis PurE using CAIR as substrate at 100 uM preincubated for 5 mins followed by substrate addition by UV spectroscopic analysis; conditions: not given

Q: With `Cc1ccc(C(=S)c2nnns2)cc1` as the molecule, how does the inhibition read?
A: 36%

target: not listed separately; experiment: Binding affinity to Bacillus anthracis PurE by Surface Plasmon Resonance analysis; conditions: not given

Q: Which Kd does the source give for `COc1ccc(-c2cc(N)[nH]n2)cc1` here?
A: 149 µM

Q: With `O=C(O)c1ccc(O)c(O)c1` [PROTOCATECHUIC ACID] as the molecule, how does the Kd read?
A: 274 µM

Q: For `O=C(O)c1cc2cc(F)ccc2[nH]1` [5-FLUOROINDOLE-2-CARBOXYLIC ACID], which Kd is on record?
A: 234 µM

Q: With `CCOc1cc(CO)c(Br)cc1OC` as the molecule, how does the Kd read?
A: 157 µM

Q: Which Kd does the source give for `Cc1ccc(C(N)c2ccncc2)cc1` (stereo not drawn) here?
A: 707 µM

Q: For `Cc1cc(C(=O)Nc2cccc(F)c2)no1`, which Kd is on record?
A: 79.8 µM

Q: Which Kd does the source give for `Oc1cc(Cl)c(Cl)cc1O` here?
A: 103 µM

Q: For `NC(=S)N1CCc2ccccc21`, which Kd is on record?
A: 35.3 µM

Q: With `COc1ccc2ncc(N)cc2c1` as the molecule, how does the Kd read?
A: 261 µM

Q: Which Kd does the source give for `CCc1ccc(C(=O)Nc2nncs2)s1` here?
A: 13.5 µM

Q: With `CCOc1ccccc1C(=S)N1CCOCC1` as the molecule, how does the Kd read?
A: 73 µM

Q: With `Cc1cnc(NC(=O)c2ccoc2C)s1` as the molecule, how does the Kd read?
A: 20.3 µM

Q: Which Kd does the source give for `NCc1cc(-c2ccccc2Cl)on1` here?
A: 444 µM

Q: For `Cc1ccc(C(=S)c2nnns2)cc1`, which Kd is on record?
A: 60.8 µM

Q: With `Nc1nn2c(-c3ccccc3)nnc2s1` as the molecule, how does the Kd read?
A: 121 µM

tested on: not listed separately; experiment: Aqueous solubility of the compound; format: physicochemical; conditions: not given

Q: With `O=C(O)c1ccc(O)c(O)c1` [PROTOCATECHUIC ACID] as the molecule, how does the solubility read?
A: > 1200 µM

tested on: not listed separately; experiment: Binding affinity to Bacillus anthracis PurE by intrinsic tryptophan fluorescence analysis; conditions: not given

Q: Which Kd does the source give for `Cc1ccc(C(N)c2ccncc2)cc1` (stereo not drawn) here?
A: Not Active

same assay, conditions: read-out: Kd

Q: With `COc1ccc(-c2cc(N)[nH]n2)cc1` as the molecule, how does the Kd read?
A: 214 µM

Q: With `CCOc1cc(CO)c(Br)cc1OC` as the molecule, how does the Kd read?
A: 367 µM

Q: For `Cc1cc(C(=O)Nc2cccc(F)c2)no1`, which Kd is on record?
A: 95.4 µM

Q: Which Kd does the source give for `Oc1cc(Cl)c(Cl)cc1O` here?
A: 182 µM

Q: With `NC(=S)N1CCc2ccccc21` as the molecule, how does the Kd read?
A: 35.7 µM

Q: Which Kd does the source give for `COc1ccc2ncc(N)cc2c1` here?
A: 73.8 µM

Q: Which Kd does the source give for `CCc1ccc(C(=O)Nc2nncs2)s1` here?
A: 19.8 µM

Q: For `CCOc1ccccc1C(=S)N1CCOCC1`, which Kd is on record?
A: 61.6 µM

Q: For `Cc1cnc(NC(=O)c2ccoc2C)s1`, which Kd is on record?
A: 39.6 µM

Q: With `NCc1cc(-c2ccccc2Cl)on1` as the molecule, how does the Kd read?
A: 402 µM

Q: With `Cc1ccc(C(=S)c2nnns2)cc1` as the molecule, how does the Kd read?
A: 81.3 µM

Q: For `Nc1nn2c(-c3ccccc3)nnc2s1`, which Kd is on record?
A: 604 µM

Q: For `Nc1cncn1[C@@H]1O[C@H](COP(=O)(O)O)[C@@H](O)[C@H]1O`, which Kd is on record?
A: 283 µM

tested on: not listed separately; experiment: Binding affinity to Escherichia coli PurE by Surface Plasmon Resonance analysis; conditions: not given

Q: With `Nc1c([N+](=O)[O-])ncn1[C@@H]1O[C@H](COP(=O)(O)O)[C@@H](O)[C@H]1O` as the molecule, how does the Kd read?
A: 0.086 µM
